The values that follow are results of earlier work, collected in patent US20100261663A1, “Compositions Containing Harpagoside and Paeoniflorin and Methods for Treatment of Conditions Associated with Pain, Inflammation, Arthritis and Symptoms Thereof” (Restorative Remedies, priority 2009, published 2010).

For data set [1], the system named is patients suffering from osteoarthritis of the knee and hip. Conditions: 4 months.
The test system of data set [2] is patients with hip and knee osteoarthritis. Conditions: after four months; extract 2,610 mg per day, diacerhein 100 mg per day; no significant differences.
Data set [3] deals with mice.
The subject of data set [4] is human intestinal microflora.
The conditions of data set [5]: for Cmax: human whole blood.
The conditions of data set [6]: mice plasma, oral peony root extract.
Data set [7] has as its system Rodent-mouse.
The test system of data set [8] is Bacillus subtilis. Conditions: Bacillus subtilis rec assay.
For data set [9], the system named is intestinal bacteria in rat feces.
In data set [10] the test system is Salmonella. Conditions: Salmonella microsome reversion assay.
The conditions of data set [11]: rats; for Cumulative biliary excretion: within 24 h.
Assay in data set [12]: not given
This is another data set of the same source.

The conditions of data set [13]: everted sac, at 60 min.
[14] abbreviates: single oral 43.8 mg harpagoside/600 mg extract (study 1).
Setting [15] is: single oral 100 mg harpagoside/400 mg extract (study 1).
Where [16] appears, read: single oral 108 mg harpagoside/1200 mg extract (study 3).
Where [17] appears, read: single oral 150 mg harpagoside/600 mg extract (study 2).
The mark [18] stands for this setting: single oral 162 mg harpagoside/1800 mg extract (study 3).
The mark [19] stands for this setting: single oral 200 mg harpagoside/800 mg extract (study 1).
The mark [20] stands for this setting: 5 mg kg^−1 intravenous, within 72 h.

Structures are written as SMILES. Where two headings read alike, the source gives them in different places.

For `CC(=O)Oc1cccc2c1C(=O)c1c(OC(C)=O)cc(C(=O)O)cc1C2=O` [diacerhein], the “diarrhea, patients” value in data set [1] is 26.7%. For the same molecule, in [1] (Harpadol 6 capsules/day, diacerhein 100 mg/day, no difference between treatments), the “Spontaneous pain (10 cm visual analogue scale)” value was “significant improvement”. For the same molecule, in data set [1] (no statistical difference between treatments), the Lequesne functional index entry is “progressive and significant reduction”. The osteoarthritis symptoms result in data set [2] was “considerable improvements”.
In the case of `C[C@]1(OC(=O)/C=C/c2ccccc2)C[C@@H](O)[C@]2(O)C=CO[C@@H](O[C@@H]3O[C@H](CO)[C@@H](O)[C@H](O)[C@H]3O)[C@@H]21` [harpagoside], the “biological activity at acidic pH of gastric secretions” value is on record as “significantly reduced”. Moreover, in data set [3], the LD50 result was “greater than 13.5 grams per kg of body weight”. For the same molecule, the transformation product result in data set [4] is listed as “transformed into the pyridine monoterpene alkaloid aucubinine B”. Further, the “harpagoside in whole blood” value in data set [5] (after 600 mg Harpagophytum extract in study 3 (54 mg harpagoside), oral) is on record as “no harpagoside was detected”. Also, in data set [5] (setting [14]), the peak concentration (Cmax) is on record as 15.4 ng/mL and the tmax is reported as 2 h. For the same molecule, in data set [5] (setting [15]), the Cmax is reported as 16.4 ng/mL, the “AUC(0-t)” value is 65.9 ng·h/mL, the “AUC(0-∞)” value is 82 ng·h/mL and the CL was 20.3 L/min. Moreover, in [5] (setting [15]), the “Terminal t1/2” value is given as 3.7 h and the tmax was 2.5 h. Also, in [5] (setting [16]), the Cmax was 8.2 ng/mL, the “AUC(0-t)” value was 17.2 ng·h/mL and the tmax is listed as 1.3 h. For the same molecule, in data set [5] (setting [17]), the Cmax is recorded as 32.2 ng/mL, the area under the curve AUC(0-t) is 157.5 ng·h/mL, the “AUC(0-∞)” value is 226 ng·h/mL and the CL is recorded as 12.2 L/min. Further, in data set [5] (setting [17]), the “Terminal t1/2” value was 5.6 h and the tmax was 1.3 h. For the same molecule, in data set [5] (setting [18]), the Cmax is 27.8 ng/mL, the area under the curve AUC(0-t) was 160.5 ng·h/mL, the “AUC(0-∞)” value is 187.9 ng·h/mL and the CL is on record as 14.4 L/min. In [5] (setting [18]), the “Terminal t1/2” value is 4.4 h and the tmax was 1.8 h. Besides, in data set [5] (setting [19]), the maximum concentration (Cmax) was 50.1 ng/mL, the “AUC(0-t)” value is 225.7 ng·h/mL, the “AUC(0-∞)” value was 355.8 ng·h/mL and the CL is recorded as 9.4 L/min. Also, in data set [5] (setting [19]), the “Terminal t1/2” value is 6.4 h and the tmax is 2.5 h. The clearance entry in data set [5] (overall, oral) is given as “about 15 L/min”.
With `C[C@@]12C[C@@]3(O)O[C@@H](O1)[C@]1(COC(=O)c4ccccc4)[C@H]3C[C@@]12O[C@@H]1O[C@H](CO)[C@@H](O)[C@H](O)[C@H]1O` [paeoniflorin, 5β-[(Benzoyloxy)methyl]tetrahydro-5-hydroxy-2-Methyl-2,5-methano-1H-3,4-dioxacyclobuta[cd]pentalen-1α(2H)-yl-β-D-glucopyranoside], the “mean terminal half-life (t(1/2))” value in data set [6] is 1.569 h. The LD50 in data set [7] (Intraperitoneal) is given as 3530 mg/kg; in data set [7] (Intravenous), 9530 mg/kg. Besides, the results for the “Toxic Effects” value in data set [7] (Intraperitoneal) and in [7] (Intravenous) were “Behavioral-somnolence (general depressed activity)” and “Behavioral-sleep. Behavioral-somnolence (general depressed activity)”, respectively. The mutagenicity entry in [8] and in data set [10] was “nonmutagenic” in each case. In addition, the metabolites formed entry in data set [9] is “paeonimetabolin-1 (PM-1) and thio-paeonimetabolin-1 (PT-PM-1)”. In addition, the results for the Cumulative biliary excretion in data set [11] (0.5 mg kg^−1 intravenous) and in [11] (0.5 mg kg^−1 oral) were 6.9 % of the dose and 1.3 % of the dose, respectively. The cumulative fecal excretion in data set [11] (setting [20]) is listed as 0.22 % of the dose; in [11] (5 mg kg^−1 oral, within 48 h), 0.08 % of the dose. Moreover, the cumulative urinary excretion in data set [11] (setting [20]) was 50.5 % of the dose; in data set [11] (5 mg kg^−1 oral, within 48 h), 1.0 % of the dose. For the same molecule, the CLtot in [11] (intravenous 0.5 mg kg^−1) is 26.1 mL/min/kg; in data set [11] (intravenous 2.0 mg kg^−1), 31.2 mL/min/kg; in [11] (intravenous 5.0 mg kg^−1), 30.3 mL/min/kg. In addition, the Vdss is 0.332 L/kg in data set [11] (intravenous 0.5 mg kg^−1), 0.384 L/kg in [11] (intravenous 2.0 mg kg^−1) and 0.423 L/kg in [11] (intravenous 5.0 mg kg^−1). In addition, the mean terminal half-life was 0.183 h in data set [11] (intravenous 0.5 mg kg^−1), 0.165 h in data set [11] (intravenous 2.0 mg kg^−1) and 0.21 h in data set [11] (intravenous 5.0 mg kg^−1). In [12] (AUC after intraperitoneal 0.5 mg kg^−1 versus intraportal or intravenous), the “metabolism in the gut wall” value is “not metabolized in the gut wall”. Moreover, in data set [12] (intraportal versus intravenous, 0.5 and 5 mg kg^−1), the hepatic extraction ratio result was “negligible”. Besides, in [12] (venous versus arterial AUC after intravenous 0.5 mg kg^−1), the “mean pulmonary extraction ratio” value is reported as 0.06.
Regarding `CCC1(c2ccccc2)C(=O)NC(=O)NC1=O` [phenobarbital], the intestinal permeability in [13] is 63.1%.
